Experimental data from PubChem BioAssay AID1919010 (Molecular Pharmacology Branch, DTP, NCI, 2023).

Test system: Hs578T complex spheroid growth, percent test/control
Test: Anticancer human tumor Hs578T cell line growth inhibition [AhR];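 further: luminescent viability signal as a proxy for spheroid growth; spheroids exposed to agents for one week after three days of growth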
Settings: for IC50: curve of first compound; for viability, T/C: stronger effect = lower value
Method in brief: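 Complex tumor spheroids co-cultured with HUVEC and human MSC stroma; AhR antagonists tested in combination with standard-of-care and investigational agents. Top concentration at or near clinical Cmax (else 10 microM), half-log dilutions; growth expressed as percent test/control.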

[1] = second compound 0.1 µM, first compound 0.0316 µM
[2] = second compound 0.1 µM, first compound 0.1 µM
[3] = second compound 0.316 µM, first compound 0.0316 µM
[4] = second compound 0.316 µM, first compound 0.1 µM
[5] = second compound 1 µM, first compound 0.0316 µM
[6] = second compound 1 µM, first compound 0.1 µM
[7] = second compound 3.16 µM, first compound 0.0316 µM
[8] = second compound 3.16 µM, first compound 0.1 µM
[9] = second compound 10 µM, first compound 0.0316 µM
[10] = second compound 10 µM, first compound 0.1 µM
[11] = second compound 0.1 µM, first compound 0.316 µM
[12] = second compound 0.1 µM, first compound 1 µM
[13] = second compound 0.1 µM, first compound 3.16 µM
[14] = second compound 0.1 µM, first compound 10 µM
[15] = second compound 0.316 µM, first compound 0.316 µM
[16] = second compound 0.316 µM, first compound 1 µM
[17] = second compound 0.316 µM, first compound 3.16 µM
[18] = second compound 0.316 µM, first compound 10 µM
[19] = second compound 1 µM, first compound 0.316 µM
[20] = second compound 1 µM, first compound 1 µM
[21] = second compound 1 µM, first compound 3.16 µM
[22] = second compound 1 µM, first compound 10 µM
[23] = second compound 3.16 µM, first compound 0.316 µM
[24] = second compound 3.16 µM, first compound 1 µM
[25] = second compound 3.16 µM, first compound 3.16 µM
[26] = second compound 3.16 µM, first compound 10 µM
[27] = second compound 10 µM, first compound 0.316 µM
[28] = second compound 10 µM, first compound 1 µM
[29] = second compound 10 µM, first compound 3.16 µM
[30] = second compound 10 µM, first compound 10 µM

IC50 (second compound 0.1 µM) [µM] | IC50 (second compound 0.316 µM) [µM] | IC50 (second compound 1 µM) [µM] | IC50 (second compound 3.16 µM) [µM] | IC50 (second compound 10 µM) [µM] | SMILES | viability, T/C [1] [%] | viability, T/C [2] [%] | viability, T/C [3] [%] | viability, T/C [4] [%] | viability, T/C [5] [%] | viability, T/C [6] [%] | viability, T/C [7] [%] | viability, T/C [8] [%] | viability, T/C [9] [%] | viability, T/C [10] [%] | viability, T/C [11] [%] | viability, T/C [12] [%] | viability, T/C [13] [%] | viability, T/C [14] [%] | viability, T/C [15] [%] | further results
> 0.1 | > 0.1 | > 0.1 | 0.0147 | < 0.000316 | CC[C@@]1(O)C(=O)OCc2c1cc1n(c2=O)Cc2cc3c(CN(C)C)c(O)ccc3nc2-1 + Cc1cncc(-c2nc(NCCc3c[nH]c4ccccc34)c3ncn(C(C)C)c3n2)c1 | 81.7 | 71.1 | 80.5 | 76.8 | 74.6 | 72.4 | 44.5 | 46.4 | 6.14 | 6.3 | – | – | – | – | – | viability, T/C (second compound 0.1 µM, first compound 0.000316 µM): 109%; viability, T/C (second compound 0.1 µM, first compound 0.001 µM): 112%; viability, T/C (second compound 0.1 µM, first compound 0.00316 µM): 95.3%; viability, T/C (second compound 0.1 µM, first compound 0.01 µM): 91.8%; viability, T/C (second compound 0.316 µM, first compound 0.000316 µM): 113%; viability, T/C (second compound 0.316 µM, first compound 0.001 µM): 112%; viability, T/C (second compound 0.316 µM, first compound 0.00316 µM): 108%; viability, T/C (second compound 0.316 µM, first compound 0.01 µM): 86.2%; viability, T/C (second compound 1 µM, first compound 0.000316 µM): 102%; viability, T/C (second compound 1 µM, first compound 0.001 µM): 121%; viability, T/C (second compound 1 µM, first compound 0.00316 µM): 98.2%; viability, T/C (second compound 1 µM, first compound 0.01 µM): 86.9%; viability, T/C (second compound 3.16 µM, first compound 0.000316 µM): 68.3%; viability, T/C (second compound 3.16 µM, first compound 0.001 µM): 72.9%; viability, T/C (second compound 3.16 µM, first compound 0.00316 µM): 67.6%; viability, T/C (second compound 3.16 µM, first compound 0.01 µM): 52.4%; viability, T/C (second compound 10 µM, first compound 0.000316 µM): 9.03%; viability, T/C (second compound 10 µM, first compound 0.001 µM): 8.61%; viability, T/C (second compound 10 µM, first compound 0.00316 µM): 7.61%; viability, T/C (second compound 10 µM, first compound 0.01 µM): 6.12%
> 10 | > 10 | > 10 | > 10 | > 10 | CC1COCCN1c1cc(C2(S(C)(=N)=O)CC2)nc(-c2ccnc3[nH]ccc23)n1 (stereo not given) + CC(CO)NC(=O)c1cc(-c2ccc(Cl)cc2)nn(-c2cnn(C)c2)c1=O | 112 | 117 | 113 | 122 | 111 | 134 | 111 | 114 | 105 | 121 | 108 | 107 | 90.5 | 60.3 | 127 | viability, T/C [16]: 100%; viability, T/C [17]: 85.2%; viability, T/C [18]: 61.3%; viability, T/C [19]: 112%; viability, T/C [20]: 111%; viability, T/C [21]: 94.7%; viability, T/C [22]: 66%; viability, T/C [23]: 114%; viability, T/C [24]: 111%; viability, T/C [25]: 91.7%; viability, T/C [26]: 59.5%; viability, T/C [27]: 122%; viability, T/C [28]: 116%; viability, T/C [29]: 90.9%; viability, T/C [30]: 58.8%
1.98 | 2.15 | 1.82 | 0.46 | < 0.0316 | Nc1ccccc1NC(=O)c1ccc(CNC(=O)OCc2cccnc2)cc1 + Cc1cncc(-c2nc(NCCc3c[nH]c4ccccc34)c3ncn(C(C)C)c3n2)c1 | 118 | 115 | 126 | 116 | 109 | 106 | 72 | 69.9 | 4.97 | 4.48 | 115 | 80.9 | 28.6 | 2.58 | 116 | viability, T/C [16]: 87.5%; viability, T/C [17]: 30.9%; viability, T/C [18]: 2.84%; viability, T/C [19]: 107%; viability, T/C [20]: 76.5%; viability, T/C [21]: 25.1%; viability, T/C [22]: 2.17%; viability, T/C [23]: 55.5%; viability, T/C [24]: 36.5%; viability, T/C [25]: 10.7%; viability, T/C [26]: 0.49%; viability, T/C [27]: 2.94%; viability, T/C [28]: 3.5%; viability, T/C [29]: 0.48%; viability, T/C [30]: 0.4%
